Assay results from patent US20110105472A1, “Diaminopyrimidines as crop protection agents” (Bayer CropScience AG, priority 2008, published 2011).
Marks after values point to notes of the source that are not given here.

Columns and labels:
[1] = test system: Stellaria media (common chickweed); experiment: Herbicidal post-emergence action (PO), STEME; type: in vivo; conditions: dose 1000 g/ha, rated visually after about 2 weeks
Method: (§1) 2. Herbicidal Post-Emergence Action (═PO)
(§2) Seeds of monocotyledonous and dicotyledonous harmful plants are placed in sandy loam, covered with soil and cultivated in a greenhouse under good growth conditions. About 2 weeks after sowing, the test plants are treated at the one-leaf stage. To this end, the compounds according to the invention, formulated as emulsion concentrates (EC), as an aqueous emulsion with a water application rate of 800 l/ha (converted), are sprayed onto the green parts of the plants. After the test plants have been kept in the greenhouse under optimum growth conditions for about 2 weeks, the effect of the preparations is rated visually in comparison to untreated controls (herbicidal effect in percent (%): 100% effect=the plants have died, 0% effect=like control plants). CAPBP=Capsella bursa-pastoris (shepherd's purse), STEME=Stellaria media (common chickweed), ABUTH=Abutilon theophrasti (velvetleaf), AMARE=Amaranthus retroflexus (redroot pigweed)

[2] = test system: Capsella bursa-pastoris (shepherd's purse); experiment: Herbicidal post-emergence action (PO), CAPBP; type: in vivo; conditions: dose 1000 g/ha, rated visually after about 2 weeks
Method: as §1, §2

[3] = logP by LC-MS, method [b], acidic range pH 2.7; type: physicochemical; conditions: pH 2.7
[4] = logP by HPLC on reversed-phase columns (C 18), method [a], acidic range pH 2.3; type: physicochemical; conditions: pH 2.3
[5] = test system: Amaranthus retroflexus (redroot pigweed); experiment: Herbicidal post-emergence action (PO), AMARE; type: in vivo; conditions: dose 1000 g/ha, rated visually after about 2 weeks
Method: as §1, §2

[6] = test system: Abutilon theophrasti (velvetleaf); experiment: Herbicidal post-emergence action (PO), ABUTH; type: in vivo; conditions: dose 1000 g/ha, rated visually after about 2 weeks
Method: as §1, §2

physchem = type: physicochemical; conditions: pH 7.8
[7] = test system: Capsella bursa-pastoris (shepherd's purse); experiment: Herbicidal pre-emergence action (PE), CAPBP; type: in vivo; conditions: dose 1000 g/ha, visual assessment after 2 weeks
From the text: (§3) 1. Herbicidal Pre-Emergence Action (═Pe)
(§4) Seeds of monocotyledonous and dicotyledonous harmful plants are placed in sandy loam and covered with soil. The compounds according to the invention, formulated as emulsion concentrates (EC), are then, as an aqueous emulsion with a water application rate of 800 l/ha (converted), applied to the surface of the covering soil.
(§5) After the treatment, the pots are placed in a greenhouse and kept under good growth conditions for the test plants. The visual assessment of the damage on the test plants is carried out after a trial period of 2 weeks by comparison with untreated controls (herbicidal effect in percent (%): 100% effect=the plants have died, 0% effect=like control plants). CAPBP=Capsella bursa-pastoris (shepherd's purse), STEME=Stellaria media (common chickweed)

[8] = test system: Stellaria media (common chickweed); experiment: Herbicidal pre-emergence action (PE), STEME; type: in vivo; conditions: dose 1000 g/ha, visual assessment after 2 weeks
From the text: as §3, §4, §5

Row | SMILES | herbicidal effect STEME [1] [%] | herbicidal effect CAPBP [2] [%] | log p [3] | herbicidal effect AMARE [5] [%] | log p (physchem) | further results
1 | O=c1[nH]c2ccc(Nc3ncc(Br)c(NC4CCC4)n3)cc2o1 [Compound 5] | 70 | 70 | 1.59[b] |  |  | 
2 | CC(C)Oc1ccc(Nc2ncc(Cl)c(NC3CCC3)n2)cc1.Cl [Compound 36, 5-Chloro-N^4-cyclobutyl-N^2-(4-isopropoxyphenyl)pyrimidine-2,4-diamine hydrochloride] |  |  | 2.44[b] |  |  | chromatographic logP [4]: 2.21
3 | COc1cc(Nc2ncc(Br)c(NC3CCC3)n2)cc(OC)c1OC [Compound 38] |  |  | 2.04[b] | 90 |  | herbicidal effect ABUTH [6]: 70%
4 | CSc1cccc(Nc2ncc(Br)c(NC3CCC3)n2)c1 [Compound 44] | 70 | 80 | 2.92[b] |  |  | 
5 | O=C1CCCN1c1cccc(Nc2ncc(Br)c(NC3CCC3)n2)c1 [Compound 45] | 80 | 70 | 1.84[b] | 70 |  | 
6 | Fc1ccc(Nc2ncc(Cl)c(NC3CCC3)n2)cc1 [Compound 47] |  |  |  |  | 3.7[c] | log p [4]: 2.15[a];
7 | O=C1CCCN1c1cccc(Nc2ncc(Cl)c(NC3CCC3)n2)c1 [Compound 48] |  | 70 |  | 70 | 2.74[c] | log p [4]: 1.71[a];
8 | O=C1COCCN1c1ccc(Nc2ncc(Br)c(NC3CCC3)n2)cc1 [Compound 50] | 80 |  | 1.53[b] | 70 |  | 
9 | CC1CC(C)CN(c2cccc(Nc3ncc(Cl)c(NC4CCC4)n3)c2)C1 (stereo not drawn) [Compound 51] |  |  |  |  | 5.82[c] | log p [4]: 2.94[a];
10 | CC1(Nc2nc(Nc3ccccc3)ncc2Cl)CCC1 [Compound 52, 5-Chloro-N^4-(1-methylcyclobutyl)-N^2-phenylpyrimidine-2,4-diamine] |  |  |  |  |  | chromatographic logP [4]: 2.1; chromatographic logP [3]: 2.1
11 | FC(F)(F)c1cnc(Nc2ccccc2)nc1NC1CCC1 [Compound 54, N^4-Cyclobutyl-N^2-phenyl-5-(trifluoromethyl)pyrimidine-2,4-diamine] |  |  |  |  |  | chromatographic logP [4]: 3.33; chromatographic logP (physchem): 3.96
12 | O=C1CCCN1c1cccc(Nc2ncc(C(F)(F)F)c(NC3CCC3)n2)c1 [Compound 55] |  |  |  |  | 3.09[c] | log p [4]: 2.64[a];
13 | O=C1CCCN1c1ccc(Nc2ncc(C(F)(F)F)c(NC3CCC3)n2)cc1 [Compound 56] |  |  |  |  | 3.01[c] | log p [4]: 2.51[a];
14 | CSc1cccc(Nc2ncc(C(F)(F)F)c(NC3CCC3)n2)c1 [Compound 57] |  |  |  |  | 4.36[c] | log p [4]: 4.05[a];
15 | Fc1ccc(Nc2ncc(C(F)(F)F)c(NC3CCC3)n2)cc1 [Compound 58] |  |  |  |  | 4[c] | log p [4]: 3.5[a];
16 | CN1CCN(c2cccc(Nc3ncc(Br)c(NC4CCC4)n3)c2)C1=O [Compound 59] | 80 | 70 | 1.79[b] |  |  | herbicidal effect ABUTH [6]: 80%
17 | CS(=O)(=O)Nc1cccc(Nc2ncc(Br)c(NC3CCC3)n2)c1 [Compound 87] | 70 |  | 1.73[b] | 80 |  | 
18 | CS(=O)(=O)Cc1cccc(Nc2ncc(Br)c(NC3CCC3)n2)c1 [Compound 88] | 80 | 70 | 1.66[b] |  |  | herbicidal effect CAPBP [7]: 90%; herbicidal effect STEME [8]: 80%
19 | CC(=O)Nc1cccc(Nc2ncc(Br)c(NC3CCC3)n2)c1 [Compound 96] | 70 | 90 | 1.54[b] | 70 |  | 

Row | SMILES | herbicidal effect STEME [1] [%] | herbicidal effect CAPBP [2] [%] | log p [3] | herbicidal effect AMARE [5] [%] | log p (physchem) | further results
20 | CN(C)C(=O)c1ccc(Nc2ncc(Br)c(NC3CCC3)n2)cc1 [Compound 100] | 70 | 70 | 1.73[b] | 70 |  | 
21 | CC(=O)N(C)c1ccc(Nc2ncc(Cl)c(NC3CCC3)n2)cc1 [Compound 120] |  | 70 | 1.64[b] | 90 |  | 
22 | CC(=O)Nc1cccc(Nc2ncc(Cl)c(NC3CCC3)n2)c1 [Compound 123] | 70 | 80 | 1.51[b] | 100 |  | 
23 | CSc1cccc(Nc2ncc(Cl)c(NC3CCC3)n2)c1 [Compound 128] | 90 | 80 | 2.46[b] | 90 |  | 
24 | CSc1ccc(Nc2ncc(Cl)c(NC3CCC3)n2)cc1 [Compound 129] | 70 | 70 | 2.33[b] |  |  | 
25 | CC(=O)Nc1cc(Nc2ncc(Cl)c(NC3CCC3)n2)ccc1C [Compound 142] |  |  | 1.38[b] | 80 |  | herbicidal effect CAPBP [7]: 80%; herbicidal effect STEME [8]: 70%; herbicidal effect ABUTH [6]: 70%
26 | CCOC(=O)Cc1ccc(Nc2ncc(Br)c(NC3CCC3)n2)cc1 [Compound 148] | 70 | 80 | 2.3[b] | 90 |  | herbicidal effect ABUTH [6]: 70%
27 | N#CCC(=O)c1ccc(Nc2ncc(Br)c(NC3CCC3)n2)cc1 [Compound 149] | 70 | 90 | 2.57[b] | 90 |  | 
28 | CN(C)C(=O)c1cccc(Nc2ncc(Br)c(NC3CCC3)n2)c1 [Compound 155] | 80 | 80 | 1.68[b] | 70 |  | 
29 | O=C(O)c1ccc(Nc2ncc(Br)c(NC3CCC3)n2)cc1 [Compound 156] |  |  | 1.94[b] |  |  | herbicidal effect CAPBP [7]: 70%; herbicidal effect STEME [8]: 70%
30 | O=C1CCCN1c1cc(Nc2ncc(C(F)(F)F)c(NC3CCC3)n2)ccc1F [Compound 211] |  |  |  |  | 2.96[c] | log p [4]: 2.69[a];
31 | CC(C#N)c1ccc(Nc2ncc(Cl)c(NC3CCC3)n2)cc1 (stereo not drawn) [Compound 234] |  |  |  |  | 3.45[c] | 
32 | CCSc1cccc(Nc2ncc(C(F)(F)F)c(NC3CCC3)n2)c1 [Compound 235] |  |  |  |  | 4.8[c] | 
33 | CC(C)NC(=O)c1ccc(Nc2ncc(Cl)c(NC3CCC3)n2)cc1 [Compound 248] |  |  |  |  | 2.68[c] | 
34 | CCN(CC)C(=O)c1ccc(Nc2ncc(Cl)c(NC3CCC3)n2)cc1 [Compound 250] |  |  |  |  | 3.19[c] | 
35 | CC(=O)N(C)c1cccc(Nc2ncc(Cl)c(NC3CCC3)n2)c1 [Compound 261] |  |  |  |  | 2.49[c] | 
36 | O=C(c1cccc(Nc2ncc(Cl)c(NC3CCC3)n2)c1)N1CCOCC1 [Compound 262] |  |  |  |  | 2.39[c] | 
37 | CS(=O)(=O)c1cccc(Nc2ncc(Cl)c(NC3CCC3)n2)c1 [Compound 263] |  |  |  |  | 2.63[c] | 
